ChEMBL document CHEMBL4673372, “1,2,3-triazole-thiazole hybrids: Synthesis, in vitro antimicrobial activity and antibiofilm studies” (Bioorg Med Chem Lett, 2021)
pIC50: −log10 of the molar value. Values after ≈ are worked out from the molar mass of the structure shown.

Experiments:
Staphylococcus aureus [1] = experiment: Bactericidal activity against Staphylococcus aureus MTCC 96; assay type: functional
Pichia kudriavzevii [2] = experiment: Antifungal activity against Candida krusei MTCC 3020; assay type: functional
Candida albicans [3] = experiment: Antifungal activity against Candida albicans MTCC 227; assay type: functional
Candida albicans [4] = experiment: Antifungal activity against Candida albicans MTCC 854; assay type: functional
THP-1 [5] = experiment: Cytotoxicity against human THP-1 cells assessed as reduction in cell viability at 200 uM by MTT assay; assay type: cell-based; conditions: thp-1, 200 µM
Staphylococcus aureus [6] = experiment: Antibacterial activity against Staphylococcus aureus MTCC 96 assessed as inhibition of bacterial growth by microtiter broth dilution method; assay type: functional
[Candida] aaseri [7] = Antifungal activity against Candida aaseri MTCC 1962; assay type: functional; conditions: Yamadazyma aaseri
Staphylococcus aureus [8] = experiment: Antibacterial activity against Staphylococcus aureus MLS16 MTCC 2940 assessed as inhibition of bacterial growth by microtiter broth dilution method; assay type: functional
Candida albicans [9] = experiment: Antifungal activity against Candida albicans MTCC 1637; assay type: functional
Raoultella planticola [10] = experiment: Inhibition of biofilm formation in Klebsiella planticola MTCC 530 incubated for 24 hrs by crystal violet staining based microtiter plate method; assay type: functional, organism-based; conditions: for pIC50: Klebsiella planticola, MTCC 530, 24 h, read-out: IC50
Escherichia coli [11] = experiment: Antibacterial activity against Escherichia coli MTCC 739 assessed as inhibition of bacterial growth by microtiter broth dilution method; assay type: functional
Pichia sporocuriosa [12] = experiment: Fungicidal activity against Issatchenkia hanoiensis MTCC 4755; assay type: functional
Candida albicans [13] = experiment: Fungicidal activity against Candida albicans MTCC 183; assay type: functional
Nakaseomyces glabratus [14] = experiment: Antifungal activity against Candida glabrata MTCC 3019; assay type: functional
Staphylococcus aureus [15] = experiment: Inhibition of biofilm formation in Staphylococcus aureus MLS16 MTCC 2940 incubated for 24 hrs by crystal violet staining based microtiter plate method; assay type: functional, organism-based
Bacillus subtilis [16] = experiment: Bactericidal activity against Bacillus subtilis MTCC 121; assay type: functional
Candida albicans [17] = experiment: Antifungal activity against Candida albicans MTCC 4748; assay type: functional
Candida parapsilosis [18] = experiment: Antifungal activity against Candida parapsilosis MTCC 1745; assay type: functional; conditions: Lodderomyces parapsilosis
[19] = Selectivity index, ratio of CC50 for human THP-1 cells to MIC for Staphylococcus aureus MTCC 96; assay type: toxicity
Raoultella planticola [20] = experiment: Bactericidal activity against Klebsiella planticola MTCC 530; assay type: functional
Bacillus subtilis [21] = experiment: Antibacterial activity against Bacillus subtilis MTCC 121 assessed as inhibition of bacterial growth by microtiter broth dilution method; assay type: functional
Pseudomonas aeruginosa [22] = experiment: Antibacterial activity against Pseudomonas aeruginosa MTCC 2453 assessed as inhibition of bacterial growth by microtiter broth dilution method; assay type: functional
Micrococcus luteus [23] = experiment: Antibacterial activity against Micrococcus luteus MTCC 2470 assessed as inhibition of bacterial growth by microtiter broth dilution method; assay type: functional
Pseudomonas aeruginosa [24] = experiment: Inhibition of biofilm formation in Pseudomonas aeruginosa MTCC 2453 incubated for 24 hrs by crystal violet staining based microtiter plate method; assay type: functional, organism-based; conditions: for pIC50: Pseudomonas aeruginosa, MTCC 2453, 24 h, read-out: IC50
Bacillus subtilis [25] = experiment: Inhibition of biofilm formation in Bacillus subtilis MTCC 121 incubated for 24 hrs by crystal violet staining based microtiter plate method; assay type: functional, organism-based
[26] = Cytotoxicity against human THP-1 cells; assay type: cell-based
Candida albicans [27] = experiment: Inhibition of biofilm formation in Candida albicans MTCC 3017 incubated for 24 hrs by crystal violet staining based microtiter plate method; assay type: functional, organism-based; conditions: for pIC50: Candida albicans, MTCC 3017, 24 h, read-out: IC50
Escherichia coli [28] = experiment: Bactericidal activity against Escherichia coli MTCC 739; assay type: functional
Candida albicans [29] = experiment: Antifungal activity against Candida albicans MTCC 183; assay type: functional
Micrococcus luteus [30] = experiment: Bactericidal activity against Micrococcus luteus MTCC 2470; assay type: functional
Pichia sporocuriosa [31] = experiment: Antifungal activity against Issatchenkia hanoiensis MTCC 4755; assay type: functional
Micrococcus luteus [32] = experiment: Inhibition of biofilm formation in Micrococcus luteus MTCC 2470 incubated for 24 hrs by crystal violet staining based microtiter plate method; assay type: functional, organism-based
Candida albicans [33] = experiment: Antifungal activity against Candida albicans MTCC 3018; assay type: functional
Staphylococcus aureus [34] = experiment: Bactericidal activity against Staphylococcus aureus MLS16 MTCC 2940; assay type: functional
Pseudomonas aeruginosa [35] = experiment: Bactericidal activity against Pseudomonas aeruginosa MTCC 2453; assay type: functional
Candida albicans [36] = experiment: Antifungal activity against Candida albicans MTCC 3958; assay type: functional
THP-1 [37] = experiment: Cytotoxicity against human THP-1 cells assessed as cell damage at 200 uM by LDH assay; assay type: cell-based; conditions: thp-1, 200 µM
Staphylococcus aureus [38] = experiment: Inhibition of biofilm formation in Staphylococcus aureus […] incubated for 24 hrs by crystal violet staining based microtiter plate method; assay type: functional, organism-based
Raoultella planticola [39] = experiment: Antibacterial activity against Klebsiella planticola MTCC 530 assessed as inhibition of bacterial growth by microtiter broth dilution method; assay type: functional
Escherichia coli [40] = experiment: Inhibition of biofilm formation in Escherichia coli MTCC 739 incubated for 24 hrs by crystal violet staining based microtiter plate method; assay type: functional, organism-based; conditions: for pIC50: Escherichia coli, MTCC 739, 24 h, read-out: IC50
Candida albicans [41] = experiment: Fungicidal activity against Candida albicans MTCC 227; assay type: functional
Candida albicans [42] = experiment: Fungicidal activity against Candida albicans MTCC 3958; assay type: functional
[Candida] aaseri [43] = Fungicidal activity against Candida aaseri MTCC 1962; assay type: functional; conditions: Yamadazyma aaseri
Candida albicans [44] = experiment: Fungicidal activity against Candida albicans MTCC 4748; assay type: functional
Candida albicans [45] = experiment: Fungicidal activity against Candida albicans MTCC 854; assay type: functional
Nakaseomyces glabratus [46] = experiment: Fungicidal activity against Candida glabrata MTCC 3019; assay type: functional
Pichia kudriavzevii [47] = experiment: Fungicidal activity against Candida krusei MTCC 3020; assay type: functional
Candida albicans [48] = experiment: Fungicidal activity against Candida albicans MTCC 3018; assay type: functional
Candida albicans [49] = experiment: Fungicidal activity against Candida albicans MTCC 1637; assay type: functional
Candida parapsilosis [50] = experiment: Fungicidal activity against Candida parapsilosis MTCC 1745; assay type: functional; conditions: Lodderomyces parapsilosis

COc1ccc(-n2cc(COc3ccc(/C=N/Nc4nc(-c5cc6cccc(OC)c6oc5=O)cs4)cc3)nn2)cc1
MBC (Staphylococcus aureus [1]): 13.4 µM (≈ 7.78 µg/mL) | MIC (Pichia kudriavzevii [2]): > 215 µM | MIC (Candida albicans [3]): > 215 µM | MIC (Candida albicans [4]): > 215 µM | Activity (THP-1 [5]): Toxic | MIC (Staphylococcus aureus [6]): 3.71 µM (≈ 2.15 µg/mL) | MIC ([Candida] aaseri [7]): > 215 µM | MIC (Staphylococcus aureus [8]): 3.71 µM (≈ 2.15 µg/mL) | MIC (Candida albicans [9]): > 215 µM | pIC50 (Raoultella planticola [10]): 4.40 | MIC (Escherichia coli [11]): 6.7 µM (≈ 3.89 µg/mL) | MFC (Pichia sporocuriosa [12]): 13.4 µM (≈ 7.78 µg/mL) | MFC (Candida albicans [13]): 26.9 µM (≈ 15.6 µg/mL) | MIC (Nakaseomyces glabratus [14]): > 215 µM | IC50 (Staphylococcus aureus [15]): Not Active | MBC (Bacillus subtilis [16]): 13.4 µM (≈ 7.78 µg/mL) | MIC (Candida albicans [17]): > 215 µM | MIC (Candida parapsilosis [18]): > 215 µM | selectivity ratio [19]: 9.28 | MBC (Raoultella planticola [20]): 6.7 µM (≈ 3.89 µg/mL) | MIC (Bacillus subtilis [21]): 3.71 µM (≈ 2.15 µg/mL) | MIC (Pseudomonas aeruginosa [22]): 13.4 µM (≈ 7.78 µg/mL) | MIC (Micrococcus luteus [23]): 3.71 µM (≈ 2.15 µg/mL) | pIC50 (Pseudomonas aeruginosa [24]): 4.33 | pIC50 (Bacillus subtilis [25]; Bacillus subtilis, MTCC 121, 24 h, read-out: IC50): 4.78 | CC50 [26]: 34.5 µM | pIC50 (Candida albicans [27]): 4.45 | MBC (Escherichia coli [28]): 6.7 µM (≈ 3.89 µg/mL) | MIC (Candida albicans [29]): 13.4 µM (≈ 7.78 µg/mL) | MBC (Micrococcus luteus [30]): 13.4 µM (≈ 7.78 µg/mL) | MIC (Pichia sporocuriosa [31]): 6.7 µM (≈ 3.89 µg/mL) | pIC50 (Micrococcus luteus [32]; Micrococcus luteus, MTCC 2470, 24 h, read-out: IC50): 3.81 | MIC (Candida albicans [33]): > 215 µM | MBC (Staphylococcus aureus [34]): 13.4 µM (≈ 7.78 µg/mL) | MBC (Pseudomonas aeruginosa [35]): 28.8 µM (≈ 16.7 µg/mL) | MIC (Candida albicans [36]): > 215 µM | Activity (THP-1 [37]): Toxic | pIC50 (Staphylococcus aureus [38]; Staphylococcus aureus, MTCC 92, 24 h, read-out: IC50): 4.87 | MIC (Raoultella planticola [39]): 3.2 µM (≈ 1.86 µg/mL) | pIC50 (Escherichia coli [40]): 4.17

O=C(O)c1cn(C2CC2)c2cc(N3CCNCC3)c(F)cc2c1=O [CIPROFLOXACIN]
MBC (Staphylococcus aureus [1]): 2.7 µM (≈ 0.895 µg/mL) | MIC (Staphylococcus aureus [6]): 2.7 µM (≈ 0.895 µg/mL) | MIC (Staphylococcus aureus [8]): 2.7 µM (≈ 0.895 µg/mL) | pIC50 (Raoultella planticola [10]): 6.10 | MIC (Escherichia coli [11]): 2.7 µM (≈ 0.895 µg/mL) | MBC (Bacillus subtilis [16]): 2.7 µM (≈ 0.895 µg/mL) | MBC (Raoultella planticola [20]): 2.7 µM (≈ 0.895 µg/mL) | MIC (Bacillus subtilis [21]): 2.7 µM (≈ 0.895 µg/mL) | MIC (Pseudomonas aeruginosa [22]): 2.7 µM (≈ 0.895 µg/mL) | MIC (Micrococcus luteus [23]): 2.7 µM (≈ 0.895 µg/mL) | pIC50 (Pseudomonas aeruginosa [24]): 6.30 | IC50 (Candida albicans [27]): Not Active | MBC (Escherichia coli [28]): 2.7 µM (≈ 0.895 µg/mL) | MBC (Micrococcus luteus [30]): 2.7 µM (≈ 0.895 µg/mL) | MBC (Staphylococcus aureus [34]): 2.7 µM (≈ 0.895 µg/mL) | MBC (Pseudomonas aeruginosa [35]): 2.7 µM (≈ 0.895 µg/mL) | MIC (Raoultella planticola [39]): 2.7 µM (≈ 0.895 µg/mL) | pIC50 (Escherichia coli [40]): 6.22

Clc1ccc(COC(Cn2ccnc2)c2ccc(Cl)cc2Cl)c(Cl)c1 (stereo not given) [MICONAZOLE]
MFC (Candida albicans [41]): 18.7 µM (≈ 7.78 µg/mL) | MIC (Pichia kudriavzevii [2]): 18.7 µM (≈ 7.78 µg/mL) | MFC (Candida albicans [42]): 18.7 µM (≈ 7.78 µg/mL) | MFC ([Candida] aaseri [43]): 18.7 µM (≈ 7.78 µg/mL) | MIC (Candida albicans [3]): 18.7 µM (≈ 7.78 µg/mL) | MIC (Candida albicans [4]): 18.7 µM (≈ 7.78 µg/mL) | MFC (Candida albicans [44]): 18.7 µM (≈ 7.78 µg/mL) | MIC ([Candida] aaseri [7]): 18.7 µM (≈ 7.78 µg/mL) | MFC (Candida albicans [45]): 18.7 µM (≈ 7.78 µg/mL) | MIC (Candida albicans [9]): 18.7 µM (≈ 7.78 µg/mL) | IC50 (Raoultella planticola [10]): Not Active | MFC (Pichia sporocuriosa [12]): 18.7 µM (≈ 7.78 µg/mL) | MFC (Candida albicans [13]): 18.7 µM (≈ 7.78 µg/mL) | MIC (Nakaseomyces glabratus [14]): 18.7 µM (≈ 7.78 µg/mL) | IC50 (Staphylococcus aureus [15]): Not Active | MIC (Candida albicans [17]): 18.7 µM (≈ 7.78 µg/mL) | MIC (Candida parapsilosis [18]): 18.7 µM (≈ 7.78 µg/mL) | IC50 (Pseudomonas aeruginosa [24]): Not Active | IC50 (Bacillus subtilis [25]): Not Active | pIC50 (Candida albicans [27]): 5.60 | MIC (Candida albicans [29]): 18.7 µM (≈ 7.78 µg/mL) | MFC (Nakaseomyces glabratus [46]): 18.7 µM (≈ 7.78 µg/mL) | MFC (Pichia kudriavzevii [47]): 18.7 µM (≈ 7.78 µg/mL) | MIC (Pichia sporocuriosa [31]): 18.7 µM (≈ 7.78 µg/mL) | IC50 (Micrococcus luteus [32]): Not Active | MIC (Candida albicans [33]): 18.7 µM (≈ 7.78 µg/mL) | MFC (Candida albicans [48]): 18.7 µM (≈ 7.78 µg/mL) | MIC (Candida albicans [36]): 18.7 µM (≈ 7.78 µg/mL) | IC50 (Staphylococcus aureus [38]): Not Active | MFC (Candida albicans [49]): 18.7 µM (≈ 7.78 µg/mL) | IC50 (Escherichia coli [40]): Not Active | MFC (Candida parapsilosis [50]): 18.7 µM (≈ 7.78 µg/mL)
